How the values were obtained:
[1] = system: MDR1-MDCK cell monolayers; test: MDR1-MDCK Efflux Ratio Assay; format: in vitro ADME; conditions: MDR1-MDCK cells, 2 hr, pH 7.4
Summary of the method: (§1)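 Bidirectional (apical↔basolateral) transport across confluent MDR1-MDCK monolayers in HBSS/10 mM HEPES pH 7.4, receiver buffer with 1% BSA; 2 hr at 37° C, 5% CO2. Donor sampled at 0 and 120 min, receiver at 120 min, quantified by LC-MS/MS in triplicate. Papp, efflux ratio and percent recovery calculated.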

[2] = target: OGA (S400 O-GLCNAC), HEK-293T cells transfected with Tau-V5 (Homo sapiens (Human), UniProt O60502); test: Cellular OGA-Tau MSD Assay; format: cell-based; conditions: HEK-293T cells, Tau-S400-GlcNAc MSD readout
Summary of the method: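 HEK-293T cells transfected with OGA and Tau-V5 plasmids were treated overnight at 37° C with a 10-point, 3-fold titration from 1 uM. Lysates went onto V5-antibody MSD plates to capture Tau, probed with a Tau O-GlcNAc antibody and read by electrochemiluminescence; IC50 from a 4-parameter fit.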

[3] = target: Recombinant full length human OGA enzyme (Homo sapiens (Human), UniProt O60502); test: OGA Enzyme Inhibition Biochemical Assay; conditions: 1 nM OGA, 100 μM 4-MUGlcNAc, pH 6.4
Summary of the method: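 Full-length recombinant human OGA with fluorogenic 4-MUGlcNAc in McIlvaine buffer pH 6.4, 0.01% BSA; 90 min at room temperature, glycine pH 10 quench, fluorescence Ex 355/Em 460 nm. 10-point, 4-fold dilution from 20 μM; 4-parameter variable-slope fit.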

[4] = Rat Liver Microsome Stability Assay; format: in vitro ADME; conditions: rat liver microsomes, 1 uM compound
P-gp (MDR1) = test: MDR1-MDCK Efflux Ratio Assay; format: in vitro ADME; conditions: dog, MDCK-MDR1, pH 7.4, MDR1-MDCK cells, 2 hr, pH 7.4; read-out: MDR1-MDCK Efflux Ratio (B-A/A-B)
Summary of the method: as §1

Recombinant full length human OGA enzyme, sequence (O60502 whole entry): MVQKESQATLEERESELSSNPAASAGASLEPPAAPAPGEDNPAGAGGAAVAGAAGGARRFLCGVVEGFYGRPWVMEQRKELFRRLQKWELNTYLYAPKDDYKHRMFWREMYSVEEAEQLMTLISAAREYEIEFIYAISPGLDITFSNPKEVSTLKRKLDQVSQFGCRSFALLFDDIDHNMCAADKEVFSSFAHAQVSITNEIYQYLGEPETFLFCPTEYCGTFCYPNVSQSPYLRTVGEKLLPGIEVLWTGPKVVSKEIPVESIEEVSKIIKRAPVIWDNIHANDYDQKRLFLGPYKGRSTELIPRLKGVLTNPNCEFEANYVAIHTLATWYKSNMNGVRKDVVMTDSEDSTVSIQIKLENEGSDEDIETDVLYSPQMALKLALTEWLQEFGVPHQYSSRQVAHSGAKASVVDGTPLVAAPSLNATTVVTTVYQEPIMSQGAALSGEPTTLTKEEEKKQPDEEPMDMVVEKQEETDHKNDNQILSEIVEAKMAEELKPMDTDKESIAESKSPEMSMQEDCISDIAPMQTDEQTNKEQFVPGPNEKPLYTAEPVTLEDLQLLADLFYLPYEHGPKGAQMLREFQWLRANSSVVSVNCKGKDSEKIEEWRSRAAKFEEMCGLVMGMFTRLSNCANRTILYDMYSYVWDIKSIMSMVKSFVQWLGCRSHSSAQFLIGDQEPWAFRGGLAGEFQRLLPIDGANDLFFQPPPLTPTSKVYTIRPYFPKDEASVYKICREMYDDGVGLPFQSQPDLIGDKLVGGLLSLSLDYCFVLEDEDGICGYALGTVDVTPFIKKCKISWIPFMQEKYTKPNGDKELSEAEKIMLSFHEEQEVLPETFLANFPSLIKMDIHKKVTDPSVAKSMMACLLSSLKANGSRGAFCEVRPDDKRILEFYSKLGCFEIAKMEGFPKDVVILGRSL
OGA (S400 O-GLCNAC), HEK-293T cells transfected with Tau-V5, sequence (O60502 whole entry): as above

MDR1-MDCK Efflux Ratio (B-A/A-B) [1] | IC50 [2] [nM] | IC50 [3] [nM] | RLM % Qh (%) [4] [%] | efflux ratio at 2 h (P-gp (MDR1)) | Compound
2.3 | 1 | < 1 | 39 |  | N-(4-fluoro-5-(((2S,4R)-4-((6-methoxypyrimidin-4-yl-4,5,6-^13C3)oxy)-2 methylpyrrolidin-1-yl)methyl)thiazol-2-yl)acetamide [Example 1-153]
 | 2 | < 1 | 92 | 4.3 | COc1cc(O[C@@H]2CC[C@H](C)N(Cc3sc(NC(C)=O)nc3F)C2)ncn1 [Example 1-35, N-(4-fluoro-5-(((2S,5R)-5-((6-methoxypyrimidin-4-yl)oxy)-2-methylpiperidin-1-yl)methyl)thiazol-2-yl)acetamide]
 | 70 | 11 | 78 | 25.4 | CC(=O)Nc1nc(F)c(CN2CCC[C@H](Oc3cc(C)nc(C)c3)C2)s1 [Example 1-54, (S)—N-(5-((3-((2,6-dimethylpyridin-4-yl)oxy)piperidin-1-yl)methyl)-4-fluorothiazol-2-yl)acetamide]
 | 1 | < 1 | 39 | 34.4 | CC(=O)Nc1nc(F)c(CN2C[C@H](Oc3ccnc(C)c3)C[C@@H]2C)s1 [Example 1-110, N-(4-fluoro-5-(((2S,4R)-2-methyl-4-((2-methylpyridin-4-yl)oxy)pyrrolidin-1-yl)methyl)thiazol-2-yl)acetamide]
 | 2 | < 1 | 27 | 4.3 | [2H]C([2H])([2H])Oc1cc(O[C@@H]2C[C@H](C)N(Cc3cnc(NC(C)=O)s3)C2)ncn1 (single isomer, unassigned) [Example 1-154]
 | 1 | < 1 | 54 | 10 | COc1nccc(O[C@@H]2C[C@H](C)N(Cc3sc(NC(C)=O)nc3F)C2)n1 [Example 1-92, N-(4-fluoro-5-(((2S,4R)-4-((2-methoxypyrimidin-4-yl)oxy)-2-methylpyrrolidin-1-yl)methyl)thiazol-2-yl)acetamide]
 | 32 | 39 | 87 | 1.9 | CC(=O)Nc1ncc(CN2C[C@@H](Oc3ccc(F)cn3)C[C@@H]2C)s1 [Example 1-9, N-(5-(((2S,4S)-4-((5-fluoropyridin-2-yl)oxy)-2-methylpyrrolidin-1-yl)methyl)thiazol-2-yl)acetamide]
 | 1 | < 1 | 36 | 76.5 | CCNc1cc(O[C@@H]2C[C@H](C)N(Cc3cnc(NC(C)=O)s3)C2)ncn1 [Example 1-135, N-(5-(((2S,4R)-4-((6-(ethylamino)pyrimidin-4-yl)oxy)-2-methylpyrrolidin-1-yl)methyl)thiazol-2-yl)acetamide]
